From the supplement of paper PMC10307832

Assays:
Test in all cases: relative viability (nuclei count vs DMSO), 5 days (fraction); higher = more cells survive
[1] = compound: CC(=O)c1c(C)c2cnc(Nc3ccc(N4CCNCC4)cn3)nc2n(C2CCCC2)c1=O [Palbociclib] + COc1cc2c(Oc3ccc(NC(=O)C4(C(=O)Nc5ccc(F)cc5)CC4)cc3F)ccnc2cc1OCCCN1CCOCC1 [Foretinib] (partner 0.25 µM)
In short: (§1)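 Lung cancer cell lines were pin-tool dosed in 1536-well plates on the day after seeding, with either a lone drug or a fixed anchor-drug dose plus five library-drug doses (not always all listed) in √10 steps. Nuclei were counted on 4× images after 5 days. Relative viability is the ratio of treated-well to vehicle-well nuclei counts, with each value a median of duplicate plates.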

[2] = compound: CC(=O)c1c(C)c2cnc(Nc3ccc(N4CCNCC4)cn3)nc2n(C2CCCC2)c1=O [Palbociclib] + O=C(CCCCCCC(=O)Nc1ccccc1)NO [Vorinostat] (partner 1 µM)
In short: as §1

[3] = compound: CC(=O)c1c(C)c2cnc(Nc3ccc(N4CCNCC4)cn3)nc2n(C2CCCC2)c1=O [Palbociclib] + N=C(N)NC(=N)NCCc1ccccc1 [Phenformin] (partner 250 µM)
In short: as §1

[4] = compound: CC(=O)c1c(C)c2cnc(Nc3ccc(N4CCNCC4)cn3)nc2n(C2CCCC2)c1=O [Palbociclib] + COc1cccc2cc(-c3nc([C@H]4CC[C@H](C(=O)O)CC4)n4ncnc(N)c34)[nH]c12 [OSI-027] (partner 0.5 µM)
In short: as §1

| Cell Line | relative viability ([1]; first compound 0.01 µM) | relative viability ([1]; first compound 0.03162 µM) | relative viability ([1]; first compound 0.1 µM) | relative viability ([1]; first compound 0.3162 µM) | relative viability ([1]; first compound 1 µM) | relative viability ([2]; first compound 0.01 µM) | relative viability ([2]; first compound 0.03162 µM) | relative viability ([2]; first compound 0.1 µM) | relative viability ([2]; first compound 0.3162 µM) | relative viability ([2]; first compound 1 µM) | relative viability ([3]; first compound 0.01 µM) | relative viability ([3]; first compound 0.03162 µM) | relative viability ([3]; first compound 0.1 µM) | relative viability ([3]; first compound 0.3162 µM) | relative viability ([3]; first compound 1 µM) | relative viability ([4]; first compound 0.01 µM) | relative viability ([4]; first compound 0.03162 µM) | relative viability ([4]; first compound 0.1 µM) | relative viability ([4]; first compound 0.3162 µM) | relative viability ([4]; first compound 1 µM) |
| --- | --- | --- | --- | --- | --- | --- | --- | --- | --- | --- | --- | --- | --- | --- | --- | --- | --- | --- | --- | --- |
| NCI-H1355 | 1.03 | 0.894 | 0.902 | 0.85 | 0.715 | 0.619 | 0.578 | 0.548 | 0.629 | 0.465 | 0.511 | 0.39 | 0.387 | 0.385 | 0.26 | 0.45 | 0.359 | 0.33 | 0.282 | 0.24 |
| NCI-H1395 | 0.867 | 0.876 | 0.846 | 0.828 | 0.713 | 0.844 | 0.705 | 0.602 | 0.724 | 0.496 | 0.408 | 0.408 | 0.368 | 0.412 | 0.41 | 0.64 | 0.55 | 0.536 | 0.54 | 0.415 |
| NCI-H1437 | 1.27 | 1.16 | 0.992 | 0.991 | 0.783 | 0.873 | 0.74 | 0.651 | 0.493 | 0.35 | 0.321 | 0.445 | 0.258 | 0.237 | 0.199 | 0.747 | 0.734 | 0.711 | 0.65 | 0.291 |
| NCI-H1650 | 1.3 | 0.808 | 0.954 | 0.934 | 0.65 | 0.607 | 0.558 | 0.523 | 0.39 | 0.31 | 0.45 | 0.251 | 0.289 | 0.348 | 0.233 | 0.701 | 0.404 | 0.522 | 0.481 | 0.403 |
| NCI-H1651 | 0.882 | 0.819 | 0.779 | 0.747 | 0.613 | 0.572 | 0.523 | 0.591 | 0.529 | 0.485 | 0.342 | 0.332 | 0.308 | 0.337 | 0.256 | 0.663 | 0.639 | 0.706 | 0.663 | 0.334 |
| NCI-H1666 | 0.998 | 0.941 | 0.875 | 0.7 | 0.553 | 1.05 | 0.947 | 0.836 | 0.835 | 0.788 | 0.57 | 0.462 | 0.518 | 0.411 | 0.427 | 0.831 | 0.672 | 0.682 | 0.747 | 0.471 |
| NCI-H1734 | 0.831 | 0.683 | 0.608 | 0.686 | 0.503 | 0.731 | 0.459 | 0.619 | 0.649 | 0.48 | 0.435 | 0.337 | 0.307 | 0.286 | 0.247 | 0.684 | 0.42 | 0.466 | 0.413 | 0.329 |
| NCI-H1755 | 0.928 | 0.893 | 0.819 | 0.801 | 0.578 | 0.721 | 0.62 | 0.489 | 0.606 | 0.491 | 0.626 | 0.433 | 0.495 | 0.53 | 0.405 | 0.677 | 0.496 | 0.555 | 0.633 | 0.391 |
